From PubChem BioAssay (NCI)
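Each compound was tested at five concentrations against cells in 96-well plates for 48 hours. Abbreviation: GI50, concentration required for 50% inhibition of growth. TGI is the concentration that stops growth completely.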

Tests used:
Assay in all cases: growth of human tumour cells (NCI), 48 h
786-0 renal = tested on: 786-0 renal
A498 renal = tested on: A498 renal
A549 NSCLC = tested on: A549 NSCLC
ACHN renal = tested on: ACHN renal
BT-549 breast = tested on: BT-549 breast
CAKI-1 renal = tested on: CAKI-1 renal
CCRF-CEM leukemia = tested on: CCRF-CEM leukemia
COLO 205 colon = tested on: COLO 205 colon
DU-145 prostate = tested on: DU-145 prostate
EKVX NSCLC = tested on: EKVX NSCLC
HCC-2998 colon = tested on: HCC-2998 colon
HCT-116 colon = tested on: HCT-116 colon
HCT-15 colon = tested on: HCT-15 colon
HL-60(TB) leukemia = tested on: HL-60(TB) leukemia
HOP-62 NSCLC = tested on: HOP-62 NSCLC
HOP-92 NSCLC = tested on: HOP-92 NSCLC
HS 578T breast = tested on: HS 578T breast
HT29 colon = tested on: HT29 colon
IGROV1 ovarian = tested on: IGROV1 ovarian
K-562 leukemia = tested on: K-562 leukemia
KM12 colon = tested on: KM12 colon
LOX IMVI melanoma = tested on: LOX IMVI melanoma
M14 melanoma = tested on: M14 melanoma
MALME-3M melanoma = tested on: MALME-3M melanoma
MCF7 breast = tested on: MCF7 breast
MDA-MB-231 breast = tested on: MDA-MB-231 breast
MDA-MB-435 = tested on: MDA-MB-435
MDA-MB-468 breast = tested on: MDA-MB-468 breast
MOLT-4 leukemia = tested on: MOLT-4 leukemia
NCI-H226 lung = tested on: NCI-H226 lung
NCI-H23 lung = tested on: NCI-H23 lung
NCI-H460 lung = tested on: NCI-H460 lung
NCI-H522 lung = tested on: NCI-H522 lung
NCI/ADR-RES ovarian = tested on: NCI/ADR-RES ovarian
OVCAR-3 ovarian = tested on: OVCAR-3 ovarian
OVCAR-4 ovarian = tested on: OVCAR-4 ovarian
OVCAR-5 ovarian = tested on: OVCAR-5 ovarian
OVCAR-8 ovarian = tested on: OVCAR-8 ovarian
PC-3 prostate = tested on: PC-3 prostate
RPMI-8226 leukemia = tested on: RPMI-8226 leukemia
RXF 393 renal = tested on: RXF 393 renal
SF-268 CNS = tested on: SF-268 CNS
SF-295 CNS = tested on: SF-295 CNS
SF-539 CNS = tested on: SF-539 CNS
SK-MEL-2 melanoma = tested on: SK-MEL-2 melanoma
SK-MEL-28 melanoma = tested on: SK-MEL-28 melanoma
SK-MEL-5 melanoma = tested on: SK-MEL-5 melanoma
SK-OV-3 ovarian = tested on: SK-OV-3 ovarian
SN12C renal = tested on: SN12C renal
SNB-19 CNS = tested on: SNB-19 CNS
SNB-75 CNS = tested on: SNB-75 CNS
SR leukemia = tested on: SR leukemia
SW-620 colon = tested on: SW-620 colon
T-47D breast = tested on: T-47D breast
TK-10 renal = tested on: TK-10 renal
U251 CNS = tested on: U251 CNS
UACC-257 melanoma = tested on: UACC-257 melanoma
UACC-62 melanoma = tested on: UACC-62 melanoma
UO-31 renal = tested on: UO-31 renal

SMILES: C=CCn1c(SCC(=O)Nc2ccc(C(=O)/C=C/c3ccccc3)cc2)nnc1-c1c[nH]c2ccccc12
- GI50 (786-0 renal): 20.7 µM
- TGI (786-0 renal): 44 µM
- GI50 (A498 renal): 16.7 µM
- TGI (A498 renal): 38.5 µM
- GI50 (A549 NSCLC): 12.1 µM
- TGI (A549 NSCLC): 51.9 µM
- GI50 (ACHN renal): 11.6 µM
- TGI (ACHN renal): > 100 µM
- GI50 (BT-549 breast): 13.1 µM
- TGI (BT-549 breast): 28.7 µM
- GI50 (CAKI-1 renal): 12.1 µM
- TGI (CAKI-1 renal): > 100 µM
- GI50 (CCRF-CEM leukemia): 5.58 µM
- TGI (CCRF-CEM leukemia): > 100 µM
- GI50 (COLO 205 colon): 17.6 µM
- TGI (COLO 205 colon): 38.2 µM
- GI50 (DU-145 prostate): 25 µM
- TGI (DU-145 prostate): > 100 µM
- GI50 (EKVX NSCLC): 10.7 µM
- TGI (EKVX NSCLC): > 100 µM
- GI50 (HCC-2998 colon): 2.69 µM
- TGI (HCC-2998 colon): 7.56 µM
- GI50 (HCT-116 colon): 1.89 µM
- TGI (HCT-116 colon): 3.99 µM
- GI50 (HCT-15 colon): 2.37 µM
- TGI (HCT-15 colon): 5.53 µM
- GI50 (HL-60(TB) leukemia): 12.7 µM
- TGI (HL-60(TB) leukemia): > 100 µM
- GI50 (HOP-62 NSCLC): 47.5 µM
- TGI (HOP-62 NSCLC): > 100 µM
- GI50 (HOP-92 NSCLC): 6.54 µM
- TGI (HOP-92 NSCLC): > 100 µM
- GI50 (HS 578T breast): 9.05 µM
- TGI (HS 578T breast): > 100 µM
- GI50 (HT29 colon): 3.27 µM
- TGI (HT29 colon): 12.3 µM
- GI50 (IGROV1 ovarian): 22.5 µM
- TGI (IGROV1 ovarian): 86.3 µM
- GI50 (K-562 leukemia): 3.37 µM
- TGI (K-562 leukemia): > 100 µM
- GI50 (KM12 colon): 12.6 µM
- TGI (KM12 colon): 37.9 µM
- GI50 (LOX IMVI melanoma): 2.14 µM
- TGI (LOX IMVI melanoma): 5.34 µM
- GI50 (M14 melanoma): 12 µM
- TGI (M14 melanoma): 37.5 µM
- GI50 (MALME-3M melanoma): 50.6 µM
- TGI (MALME-3M melanoma): > 100 µM
- GI50 (MCF7 breast): 1.86 µM
- TGI (MCF7 breast): 4.62 µM
- GI50 (MDA-MB-231 breast): 11.3 µM
- TGI (MDA-MB-231 breast): 42.9 µM
- GI50 (MDA-MB-435): 3.08 µM
- TGI (MDA-MB-435): 10.6 µM
- GI50 (MDA-MB-468 breast): 4.41 µM
- TGI (MDA-MB-468 breast): 17.4 µM
- GI50 (MOLT-4 leukemia): 4.37 µM
- TGI (MOLT-4 leukemia): > 100 µM
- GI50 (NCI-H226 lung): 7.06 µM
- TGI (NCI-H226 lung): 30.6 µM
- GI50 (NCI-H23 lung): 14.4 µM
- TGI (NCI-H23 lung): 29.8 µM
- GI50 (NCI-H460 lung): 40.8 µM
- TGI (NCI-H460 lung): > 100 µM
- GI50 (NCI-H522 lung): 12.4 µM
- TGI (NCI-H522 lung): 80.3 µM
- GI50 (NCI/ADR-RES ovarian): 32.2 µM
- TGI (NCI/ADR-RES ovarian): > 100 µM
- GI50 (OVCAR-3 ovarian): 9.93 µM
- TGI (OVCAR-3 ovarian): 56.4 µM
- GI50 (OVCAR-4 ovarian): 7.07 µM
- TGI (OVCAR-4 ovarian): > 100 µM
- GI50 (OVCAR-5 ovarian): > 100 µM
- TGI (OVCAR-5 ovarian): > 100 µM
- GI50 (OVCAR-8 ovarian): 36 µM
- TGI (OVCAR-8 ovarian): > 100 µM
- GI50 (PC-3 prostate): 5.25 µM
- TGI (PC-3 prostate): 64.4 µM
- GI50 (RPMI-8226 leukemia): 2.36 µM
- TGI (RPMI-8226 leukemia): 7.39 µM
- GI50 (RXF 393 renal): 3.93 µM
- TGI (RXF 393 renal): 17.9 µM
- GI50 (SF-268 CNS): 10.9 µM
- TGI (SF-268 CNS): > 100 µM
- GI50 (SF-295 CNS): 5.85 µM
- TGI (SF-295 CNS): 37 µM
- GI50 (SF-539 CNS): 11.8 µM
- TGI (SF-539 CNS): 24.6 µM
- GI50 (SK-MEL-2 melanoma): 11.2 µM
- TGI (SK-MEL-2 melanoma): 55.4 µM
- GI50 (SK-MEL-28 melanoma): 13.5 µM
- TGI (SK-MEL-28 melanoma): 27.9 µM
- GI50 (SK-MEL-5 melanoma): 3.91 µM
- TGI (SK-MEL-5 melanoma): 15 µM
- GI50 (SK-OV-3 ovarian): 14.7 µM
- TGI (SK-OV-3 ovarian): 32.4 µM
- GI50 (SN12C renal): 27.7 µM
- TGI (SN12C renal): > 100 µM
- GI50 (SNB-19 CNS): 20 µM
- TGI (SNB-19 CNS): > 100 µM
- GI50 (SNB-75 CNS): 2.69 µM
- TGI (SNB-75 CNS): > 100 µM
- GI50 (SR leukemia): 6.09 µM
- TGI (SR leukemia): 92.4 µM
- GI50 (SW-620 colon): 8.21 µM
- TGI (SW-620 colon): 25.5 µM
- GI50 (T-47D breast): 3.78 µM
- TGI (T-47D breast): 62.3 µM
- GI50 (TK-10 renal): > 100 µM
- TGI (TK-10 renal): > 100 µM
- GI50 (U251 CNS): 6.65 µM
- TGI (U251 CNS): 19.9 µM
- GI50 (UACC-257 melanoma): 20.5 µM
- TGI (UACC-257 melanoma): 88.7 µM
- GI50 (UACC-62 melanoma): 9.27 µM
- TGI (UACC-62 melanoma): > 100 µM
- GI50 (UO-31 renal): 5.28 µM
- TGI (UO-31 renal): 23.1 µM
